What was measured:
[1] = tested on: Sonic Hedgehog, Wnt 1, Wnt 5a, engrailed 1, Nurr 1, Pitx 3, Aldh1a1, DAT, tyrosin hydroxylase; assay: Real-time-RT-PCR of neurotrophic transcription factors and dopamine markers in midbrain cultures; assay type: cell-based, mice; conditions: 50 μM, 48 hours and 48 hours after removal
Procedure: FIG. 7 Evidence of gene expression of neurotrophic transcription factors and dopamine markers with real-time-RT-PCR after incubation with 50 μM 9-methyl-β-carboline for 48 hours 10 DIV-12 DIV.
For this purpose, real-time-RT-PCR experiments were carried out. In this quantitative method the transcription of selected genes is measured. We selected genes which are enhanced under proliferation and differentiation conditions and such that are of importance for the formation, stability and degradation of dopaminergic neurons. The analyses were conducted in midbrain cultures after exposition to 50 μM 9-methyl-β-carboline for 48 hours and 48 hours after removal of 9-methyl-β-carboline. Control cultures were kept simultaneously under the same conditions. […] Moreover, factors were increased which are activated during the formation of dopaminergic precursor cells (progenitor cells) (Aldh1a1), the dopamine transporter (DAT) and tyrosin hydroxylase.

caspase-3 = assay: Activity of the apoptosis enzyme caspase-3 in midbrain culture; assay type: cell-based, mice; conditions: 50 μM
Procedure: FIG. 4d Activity of the apoptosis enzyme caspase-3 during and after incubation with 50 μM 9-methyl-β-carboline for 48 hours 10 DIV-12 DIV.
In 48 hours about 20% of the cells in culture died. In cultures with a 9-Alkyl-β-carboline only about 10% of the cells died under the same conditions (FIG. 4b). Thus, the findings are in line with the LDH findings. ATP provides the cell with energy. […] The enzyme caspase-3 is an indicator for apoptosis. After 24 hours, the enzyme activity was reduced which hints at a reduction of apoptotic processes, after 48 hours, however, it was increased (FIG. 4d). The last finding hints at a switch of culture cells from reduced necrosis to apoptosis, thus a more precise regulation of cell death.

[2] = tested on: human neuroblastoma cell line (SH-SY5Y-cells); assay: Differentiation and proliferation (bromodeoxyuridine incorporation) of human neuroblastoma cells; assay type: cell-based
Procedure: FIG. 5 Percentage of BrdU-positive cells of human neuroblastoma cells after incubation with 50 μM 9-methyl-β-carboline for 48 hours 10 DIV-12 DIV.
FIG. 6 Evidence of the reduction of cell proliferation by incorporation of bromodeoxyuridine into the cell nucleus chromatin.
The experiments were carried out with the human neuroblastoma cell line (SH-SY5Y-cells) and with a cell culture of primary nerve cells from the mice embryo midbrain. […] Moreover, the mentioned compounds induce in the primary culture from the mice embryo midbrain the generation of new, differentiated and functional dopaminergic neurons.
The question whether 9-Alkyl-β-carboline derivatives lead to the differentiation of neurons is of outstanding importance.
This cell line has many characteristics which dopaminergic neurons have as well. […] So this confirms the observations in the primary midbrain cultures that 9-methyl-β-carboline promotes the differentiation and thus the maturation of neuronal cells (FIG. 1a and FIG. 1b).
Cell proliferation can be measured by the incorporation of bromodeoxyuridine. […] This hints at a reduction of cell proliferation. This finding also supports the other findings that 9-alkyl-β-carboline derivatives promote cell differentiation.

[3] = tested on: glial cell line-derived neurotrophic factor (GDNF); assay: PCR superarray of RNA from the striata of MPP+ rats: GDNF; assay type: in vivo, rat
Text: To investigate Parkinson's disease acute in vivo models are used for years although chronic models would be a better model for the disease. Another disadvantage of the acute models is that ca. 40% of the animals die from the application of the neurotoxin. Therefore, we have chosen a chronic model in which comparably very low doses of neurotoxin 1-methyl-4-phenylpyridinium (MPP^+) were infused for 28 days into the left lateral ventricle of the rat brain. The substance was continuously applied through osmotic minipumps. Thereby, casualties were completely avoided. After four weeks, either solvent or equimolar amounts of the sample substance, namely neuroprotective betacarboline, resp. 9-alkyl-betacarboline was infused for two weeks via the same catheter. In a preliminary study for dose-finding the MPP^+ dose which leads to a reduction by 40% of the dopamine concentration in the striatum was determined. The dopamine concentration in the striatum is a characteristic marker for Parkinson's disease in which a degeneration of dopaminergic neurons occurs.
An explanation for the effect of the betacarboline was found in the tests of the RNA from the striata of these rats through the PCR superarray method. Accordingly, the betacarboline activates the generation of neurotrophins, thus proteins produced naturally in the body, which are responsible for the growth and differentiation of neurons. […]

[4] = tested on: undifferentiated multipotent neuronal precursor cells from the midbrain of mouse embryos; assay: Differentiation of multipotent neuronal precursor cells with compound in culture medium; assay type: cell-based; conditions: 50 μM final concentration once per week
Procedure: To verify if 9-methyl-β-carboline increases the efficiency of culture media for the experiments with neurons and for tissue engineering, pilot experiments were carried out by way of example with undifferentiated multipotent neuronal precursor cells from the midbrain of mouse embryos (embryonic day 14). By suitable cultivation procedures a cell suspension was produced which was kept for four weeks in a medium that contained, inter alia, growth factors from fibroblasts and the skin (epidermal growth factor). After this time the neuronal precursor cells were differentiated in a medium to promote the maturation of neurons. After a week, about 40% of the cells could be stained by a neuronal marker (β-tubulin, type III). Most other cells were glial cells. A small percentage of the neurons could be colored additionally with the antibody for tyrosin hydroxylase (˜3%). This means that about three percent of the neurons were from the dopaminergic cell type. The enzyme tyrosin hydroxylase can only be found in the midbrain in dopaminergic neurons.
Under corresponding conditions 9-methyl-β-carboline (50 μM final concentration) were added to the culture medium once per week, also once to the differentiation medium. […]

[5] = tested on: midbrain cells in culture; assay: LDH release of midbrain cells in culture; assay type: cell-based, mice; conditions: 48 hours; dose-dependent up to 50 μM
Procedure: FIG. 4a LDH release after 48 hours of incubation with 50 μM 9-methyl-β-carboline for 48 hours 10 DIV-12 DIV.
Dying cells release the enzyme lactate dehydrogenase (LDH) into the medium. Since cells always die in culture always a small LDH concentration can be detected in the medium as an indirect measure for the vitality of the culture. Compared to control conditions the LDH concentration decreased after incubation with 9-methyl-β-carboline in a dose-dependent manner with a concentration up to 50 μM (FIG. 4a). The number of dead cells can be quantified by staining the cell nuclei with propidium iodide.

Question: With `Cn1c2ccccc2c2ccncc21` [9-methyl-β-carboline] as the molecule, how does the “transcription of Aldh1a1, dopamine transporter (DAT) and tyrosin hydroxylase” value [1] read?
Answer: Its value is “increased”.

Question: What about the “transcription of Sonic Hedgehog, Wnt 1, Wnt 5a, engrailed 1, Nurr 1 and Pitx 3” value [1] of the same molecule?
Answer: Its value is “activated”.

Question: What about the caspase-3 enzyme activity (caspase-3; after 24 hours) of the same molecule?
Answer: The caspase-3 enzyme activity was “reduced”.

Question: What about the caspase-3 enzyme activity (caspase-3; after 48 hours) of the same molecule?
Answer: Its caspase-3 enzyme activity is “increased”.

Question: And the “installation of bromodeoxyuridine into the chromatin in the cell nucleus” value ([2]; 50 μM, 48 hours, BrdU-positive cells)?
Answer: Its value is “decreases”.

Question: And the “cellular extensions of neuroblastoma cells” value ([2]; human neuroblastoma cells)?
Answer: Its value is “growth of cellular extensions”.

Question: What about the “proliferation of neuroblastoma cells vs control cells” value ([2]; human neuroblastoma cells) of the same molecule?
Answer: Its value is “proliferate less than control cells”.

Question: And the “concentration of GDNF” value ([3]; left striatum)?
Answer: The value was “did not increase”.

Question: And the “increase of GDNF by factor” value ([3]; right striatum)?
Answer: The value was 12.

Question: And the “increase of percentage of dopaminergic cells” value [4]?
Answer: The value was 25%.

Question: What about the “increase of amount of neurons compared to control conditions” value ([4]; 3 independent experiments) of the same molecule?
Answer: Its value is 15%.

Question: What about the “LDH concentration in the medium compared to control” value [5] of the same molecule?
Answer: Its value is “decreased”.

Source: patent US8334299B2, “β-carboline for the treatment of neurodegenerative diseases” (Ellneuroxx, Ltd., priority 2007, dated 2012)
